Assay results reported in PMC12621043, “Un-LOK-ing a New Approach for Conformational Selective Targeting of STK10 (LOK)” (ACS Medicinal Chemistry Letters, 2025).

Legend:
STK4 (STK4A) = target: T1, STK4 (STK4A) (Homo sapiens, UniProt Q13043); experiment: DSF Tm panel; format: binding; conditions: 10 μM compound
T1 construct: purchased in-house DSF kinase panel (SGC-style construct names; the trailing letter is the construct ID)
T1 sequence (Q13043 1-311): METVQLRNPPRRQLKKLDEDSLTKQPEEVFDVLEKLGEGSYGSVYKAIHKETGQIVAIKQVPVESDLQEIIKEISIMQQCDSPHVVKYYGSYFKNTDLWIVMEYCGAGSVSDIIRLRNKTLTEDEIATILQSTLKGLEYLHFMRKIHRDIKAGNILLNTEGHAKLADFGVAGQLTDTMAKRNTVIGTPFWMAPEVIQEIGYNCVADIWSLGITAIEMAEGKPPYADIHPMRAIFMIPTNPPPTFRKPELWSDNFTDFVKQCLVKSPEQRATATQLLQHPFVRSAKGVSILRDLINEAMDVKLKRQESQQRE

MAPK1A = target: T2, MAPK1A (Homo sapiens, UniProt P28482); experiment: DSF Tm panel; format: binding; conditions: 10 μM compound
T2 construct: purchased in-house DSF kinase panel (SGC-style construct names; the trailing letter is the construct ID)

CASKA = target: T3, CASKA (Homo sapiens, UniProt O14936); experiment: DSF Tm panel; format: binding; conditions: 10 μM compound
T3 construct: purchased in-house DSF kinase panel (SGC-style construct names; the trailing letter is the construct ID)
T3 sequence (O14936 12-276): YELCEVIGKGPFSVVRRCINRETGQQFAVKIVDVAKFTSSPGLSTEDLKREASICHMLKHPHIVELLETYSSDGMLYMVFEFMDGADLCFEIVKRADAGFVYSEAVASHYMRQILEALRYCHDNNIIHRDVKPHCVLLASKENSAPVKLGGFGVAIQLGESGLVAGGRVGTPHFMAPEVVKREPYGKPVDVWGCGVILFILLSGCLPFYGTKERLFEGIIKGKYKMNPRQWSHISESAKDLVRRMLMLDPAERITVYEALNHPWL

FGFR2A = target: T4, FGFR2A (Homo sapiens, UniProt P21802); experiment: DSF Tm panel; format: binding; conditions: 10 μM compound
T4 construct: purchased in-house DSF kinase panel (SGC-style construct names; the trailing letter is the construct ID)

SRPK1A = target: T5, SRPK1A (Homo sapiens, UniProt Q96SB4); experiment: DSF Tm panel; format: binding; conditions: 10 μM compound
T5 construct: purchased in-house DSF kinase panel (SGC-style construct names; the trailing letter is the construct ID)

PKMYT1A = target: T6, PKMYT1A (Homo sapiens, UniProt Q99640); experiment: DSF Tm panel; format: binding; conditions: 10 μM compound
T6 construct: purchased in-house DSF kinase panel (SGC-style construct names; the trailing letter is the construct ID)
T6 sequence (Q99640 75-362): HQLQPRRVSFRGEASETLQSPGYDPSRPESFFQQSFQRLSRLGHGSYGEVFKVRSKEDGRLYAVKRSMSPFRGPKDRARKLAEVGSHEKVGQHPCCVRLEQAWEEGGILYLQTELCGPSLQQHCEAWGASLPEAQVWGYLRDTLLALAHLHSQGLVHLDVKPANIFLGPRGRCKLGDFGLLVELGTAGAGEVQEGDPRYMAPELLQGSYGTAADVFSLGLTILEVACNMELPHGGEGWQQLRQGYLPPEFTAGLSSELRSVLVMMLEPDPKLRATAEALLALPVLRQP

DYRK1AA = target: T7, DYRK1AA (Homo sapiens, UniProt Q13627); experiment: DSF Tm panel; format: binding; conditions: 10 μM compound
T7 construct: purchased in-house DSF kinase panel (SGC-style construct names; the trailing letter is the construct ID)

PCTK1A = target: T8, PCTK1A (Homo sapiens, UniProt Q00536); experiment: DSF Tm panel; format: binding; conditions: 10 μM compound
T8 construct: purchased in-house DSF kinase panel (SGC-style construct names; the trailing letter is the construct ID)

CAMKK2B = target: T9, CAMKK2B (Homo sapiens, UniProt Q96RR4); experiment: DSF Tm panel; format: binding; conditions: 10 μM compound
T9 construct: purchased in-house DSF kinase panel (SGC-style construct names; the trailing letter is the construct ID)

RPS6KA1A = experiment: DSF Tm panel; format: binding; conditions: 10 μM compound
MST3A = target: T10, MST3A (Homo sapiens, UniProt Q9Y6E0); experiment: DSF Tm panel; format: binding; conditions: 10 μM compound
T10 construct: purchased in-house DSF kinase panel (SGC-style construct names; the trailing letter is the construct ID)

CLK1A = target: T11, CLK1A (Homo sapiens, UniProt P49759); experiment: DSF Tm panel; format: binding; conditions: 10 μM compound
T11 construct: purchased in-house DSF kinase panel (SGC-style construct names; the trailing letter is the construct ID)

CDK2A = target: T12, CDK2A (Homo sapiens, UniProt P24941); experiment: DSF Tm panel; format: binding; conditions: 10 μM compound
T12 construct: purchased in-house DSF kinase panel (SGC-style construct names; the trailing letter is the construct ID)

GPRK5A = target: T13, GPRK5A (Homo sapiens, UniProt P34947); experiment: DSF Tm panel; format: binding; conditions: 10 μM compound
T13 construct: purchased in-house DSF kinase panel (SGC-style construct names; the trailing letter is the construct ID)

DAPK1 (DAPK1A) = target: T14, DAPK1 (DAPK1A) (Homo sapiens, UniProt P53355); experiment: DSF Tm panel; format: binding; conditions: 10 μM compound
T14 construct: purchased in-house DSF kinase panel (SGC-style construct names; the trailing letter is the construct ID)

OSR1A = target: T15, OSR1A (Homo sapiens, UniProt O95747); experiment: DSF Tm panel; format: binding; conditions: 10 μM compound
T15 construct: purchased in-house DSF kinase panel (SGC-style construct names; the trailing letter is the construct ID)

SLK [1] = target: T16, SLK (Homo sapiens, UniProt Q9H2G2); experiment: PhosphoSens in vitro activity assay; format: biochemical; conditions: ATP 150 μM
SLK [2] = target: T16, SLK; experiment: NanoBRET target engagement assay; format: cell-based; set-up: has a greater impact on the full-length protein than on the kinase domains; host or cells: HEK293T (ATCC CRL-3216); conditions: HEK293T cells
DAPK3 (DAPK3A) = target: T17, DAPK3 (DAPK3A) (Homo sapiens, UniProt O43293); experiment: DSF Tm panel; format: binding; conditions: 10 μM compound
T17 construct: purchased in-house DSF kinase panel (SGC-style construct names; the trailing letter is the construct ID)

NEK1A = target: T18, NEK1A (Homo sapiens, UniProt Q96PY6); experiment: DSF Tm panel; format: binding; conditions: 10 μM compound
T18 construct: purchased in-house DSF kinase panel (SGC-style construct names; the trailing letter is the construct ID)
T18 sequence (Q96PY6 1-328): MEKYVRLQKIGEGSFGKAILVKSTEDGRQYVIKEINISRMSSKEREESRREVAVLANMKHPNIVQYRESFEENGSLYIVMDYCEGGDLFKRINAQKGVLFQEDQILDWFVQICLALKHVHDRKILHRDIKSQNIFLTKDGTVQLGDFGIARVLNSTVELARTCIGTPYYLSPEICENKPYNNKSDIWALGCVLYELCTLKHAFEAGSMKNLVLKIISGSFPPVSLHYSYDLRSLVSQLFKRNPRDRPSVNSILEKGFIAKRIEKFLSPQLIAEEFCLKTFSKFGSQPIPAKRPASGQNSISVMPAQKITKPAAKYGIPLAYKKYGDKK

MST4A = target: T19, MST4A (Homo sapiens, UniProt Q9P289); experiment: DSF Tm panel; format: binding; conditions: 10 μM compound
T19 construct: purchased in-house DSF kinase panel (SGC-style construct names; the trailing letter is the construct ID)

STK10 = target: T20, STK10 (Homo sapiens, UniProt O94804); experiment: PhosphoSens in vitro activity assay; format: biochemical; conditions: ATP 160 μM
T20 construct: purchased in-house DSF kinase panel (SGC-style construct names; the trailing letter is the construct ID)

CDKL1A = target: T21, CDKL1A (Homo sapiens, UniProt Q00532); experiment: DSF Tm panel; format: binding; conditions: 10 μM compound
T21 construct: purchased in-house DSF kinase panel (SGC-style construct names; the trailing letter is the construct ID)

BRAFA = target: T22, BRAFA (Homo sapiens, UniProt P15056); experiment: DSF Tm panel; format: binding; conditions: 10 μM compound
T22 construct: purchased in-house DSF kinase panel (SGC-style construct names; the trailing letter is the construct ID)
T22 sequence (P15056 448-723): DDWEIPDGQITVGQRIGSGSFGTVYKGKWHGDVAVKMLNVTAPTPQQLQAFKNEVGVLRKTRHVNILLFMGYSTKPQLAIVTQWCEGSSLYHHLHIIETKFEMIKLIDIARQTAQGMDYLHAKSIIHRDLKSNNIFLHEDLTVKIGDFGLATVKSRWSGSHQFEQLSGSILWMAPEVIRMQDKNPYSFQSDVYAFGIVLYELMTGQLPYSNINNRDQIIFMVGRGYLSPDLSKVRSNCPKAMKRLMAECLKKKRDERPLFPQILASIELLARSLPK

T17 sequence (O43293 whole entry): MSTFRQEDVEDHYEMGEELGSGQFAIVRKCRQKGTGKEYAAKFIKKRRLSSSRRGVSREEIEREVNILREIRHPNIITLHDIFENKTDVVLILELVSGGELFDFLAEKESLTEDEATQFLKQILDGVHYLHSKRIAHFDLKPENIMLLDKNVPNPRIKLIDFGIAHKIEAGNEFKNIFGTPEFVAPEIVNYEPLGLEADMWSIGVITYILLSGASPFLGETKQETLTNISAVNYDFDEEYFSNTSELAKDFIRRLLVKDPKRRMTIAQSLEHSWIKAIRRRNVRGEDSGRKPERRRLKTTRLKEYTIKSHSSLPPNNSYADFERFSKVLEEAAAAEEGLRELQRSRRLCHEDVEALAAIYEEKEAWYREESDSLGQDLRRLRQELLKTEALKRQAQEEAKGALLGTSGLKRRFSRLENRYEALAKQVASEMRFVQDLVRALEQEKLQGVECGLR
T5 sequence (Q96SB4 80-653): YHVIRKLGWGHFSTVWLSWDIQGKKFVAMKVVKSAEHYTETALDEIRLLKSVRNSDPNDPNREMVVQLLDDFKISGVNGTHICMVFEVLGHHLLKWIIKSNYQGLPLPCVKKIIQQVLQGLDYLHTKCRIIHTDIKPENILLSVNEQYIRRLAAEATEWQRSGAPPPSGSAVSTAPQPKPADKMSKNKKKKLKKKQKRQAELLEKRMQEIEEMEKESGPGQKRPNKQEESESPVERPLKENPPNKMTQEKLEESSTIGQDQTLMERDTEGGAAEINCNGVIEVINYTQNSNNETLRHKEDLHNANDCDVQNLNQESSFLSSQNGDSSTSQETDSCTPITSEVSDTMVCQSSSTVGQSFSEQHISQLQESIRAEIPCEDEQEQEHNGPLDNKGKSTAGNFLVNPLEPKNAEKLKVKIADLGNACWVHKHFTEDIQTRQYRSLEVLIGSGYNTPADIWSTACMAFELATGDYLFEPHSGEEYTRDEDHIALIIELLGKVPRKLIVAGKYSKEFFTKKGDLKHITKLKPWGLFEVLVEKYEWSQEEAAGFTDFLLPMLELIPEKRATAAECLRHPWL
T10 sequence (Q9Y6E0 whole entry): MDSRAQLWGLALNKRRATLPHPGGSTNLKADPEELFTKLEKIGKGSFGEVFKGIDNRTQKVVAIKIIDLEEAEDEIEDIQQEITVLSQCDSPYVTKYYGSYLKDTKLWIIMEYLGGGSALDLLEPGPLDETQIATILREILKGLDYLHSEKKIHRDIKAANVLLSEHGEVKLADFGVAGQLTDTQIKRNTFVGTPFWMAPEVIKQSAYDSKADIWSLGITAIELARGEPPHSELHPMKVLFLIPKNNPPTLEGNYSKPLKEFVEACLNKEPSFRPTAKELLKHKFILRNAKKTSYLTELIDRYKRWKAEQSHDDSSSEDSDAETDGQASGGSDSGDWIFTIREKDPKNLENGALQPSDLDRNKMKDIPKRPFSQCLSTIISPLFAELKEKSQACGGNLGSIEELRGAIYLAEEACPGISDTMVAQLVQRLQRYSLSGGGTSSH
T4 sequence (P21802 458-770): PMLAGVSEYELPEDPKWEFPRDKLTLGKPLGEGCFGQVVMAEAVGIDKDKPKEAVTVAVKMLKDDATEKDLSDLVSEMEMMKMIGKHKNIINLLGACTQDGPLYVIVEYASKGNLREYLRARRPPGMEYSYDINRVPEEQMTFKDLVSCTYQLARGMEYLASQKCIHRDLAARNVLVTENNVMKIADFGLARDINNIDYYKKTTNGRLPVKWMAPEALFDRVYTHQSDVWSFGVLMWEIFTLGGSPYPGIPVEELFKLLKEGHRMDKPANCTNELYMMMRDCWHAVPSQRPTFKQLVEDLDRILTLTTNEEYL
T9 sequence (Q96RR4 161-449): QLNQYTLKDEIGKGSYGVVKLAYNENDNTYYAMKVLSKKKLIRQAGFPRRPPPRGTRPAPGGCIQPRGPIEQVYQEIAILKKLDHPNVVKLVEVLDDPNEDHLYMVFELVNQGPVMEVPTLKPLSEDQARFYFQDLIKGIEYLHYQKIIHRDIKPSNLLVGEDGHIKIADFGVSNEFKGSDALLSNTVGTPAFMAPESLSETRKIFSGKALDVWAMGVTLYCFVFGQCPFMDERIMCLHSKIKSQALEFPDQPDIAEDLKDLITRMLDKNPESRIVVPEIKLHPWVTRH
T15 sequence (O95747 17-291): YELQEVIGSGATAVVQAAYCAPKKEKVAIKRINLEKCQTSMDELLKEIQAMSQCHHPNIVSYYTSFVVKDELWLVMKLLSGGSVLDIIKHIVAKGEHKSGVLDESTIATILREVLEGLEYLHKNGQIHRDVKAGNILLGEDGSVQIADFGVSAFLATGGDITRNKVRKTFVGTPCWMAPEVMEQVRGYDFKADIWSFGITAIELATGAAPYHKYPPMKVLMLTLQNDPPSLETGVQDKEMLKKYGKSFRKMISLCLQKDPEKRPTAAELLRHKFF
T8 sequence (Q00536 163-478): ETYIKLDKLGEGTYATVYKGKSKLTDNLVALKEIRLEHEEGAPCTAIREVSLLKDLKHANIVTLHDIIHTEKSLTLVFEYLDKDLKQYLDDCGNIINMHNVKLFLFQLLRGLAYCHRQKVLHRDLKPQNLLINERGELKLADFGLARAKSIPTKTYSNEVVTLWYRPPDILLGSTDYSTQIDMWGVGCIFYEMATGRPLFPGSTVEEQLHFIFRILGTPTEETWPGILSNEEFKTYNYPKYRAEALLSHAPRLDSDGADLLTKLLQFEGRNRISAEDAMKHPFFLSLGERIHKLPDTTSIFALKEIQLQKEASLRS
T20 sequence (O94804 18-317 limits assumed): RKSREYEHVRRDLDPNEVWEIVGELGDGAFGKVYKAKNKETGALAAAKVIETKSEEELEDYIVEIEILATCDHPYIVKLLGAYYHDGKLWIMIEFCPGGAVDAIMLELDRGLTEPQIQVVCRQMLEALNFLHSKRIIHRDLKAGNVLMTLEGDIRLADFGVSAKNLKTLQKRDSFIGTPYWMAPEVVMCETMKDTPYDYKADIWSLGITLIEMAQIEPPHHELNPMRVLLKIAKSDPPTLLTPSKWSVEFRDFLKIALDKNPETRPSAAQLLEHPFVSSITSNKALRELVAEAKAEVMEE
T2 sequence (P28482 whole entry): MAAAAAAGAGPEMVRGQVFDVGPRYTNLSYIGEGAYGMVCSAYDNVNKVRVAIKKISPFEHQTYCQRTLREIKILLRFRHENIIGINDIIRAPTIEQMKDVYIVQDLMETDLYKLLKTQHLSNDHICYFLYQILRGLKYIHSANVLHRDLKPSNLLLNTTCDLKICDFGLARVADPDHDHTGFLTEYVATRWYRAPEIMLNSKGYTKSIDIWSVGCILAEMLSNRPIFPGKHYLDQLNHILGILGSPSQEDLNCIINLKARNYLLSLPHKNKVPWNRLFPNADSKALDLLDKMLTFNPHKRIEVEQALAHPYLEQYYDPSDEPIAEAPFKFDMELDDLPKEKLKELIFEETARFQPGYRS
T14 sequence (P53355 1-285): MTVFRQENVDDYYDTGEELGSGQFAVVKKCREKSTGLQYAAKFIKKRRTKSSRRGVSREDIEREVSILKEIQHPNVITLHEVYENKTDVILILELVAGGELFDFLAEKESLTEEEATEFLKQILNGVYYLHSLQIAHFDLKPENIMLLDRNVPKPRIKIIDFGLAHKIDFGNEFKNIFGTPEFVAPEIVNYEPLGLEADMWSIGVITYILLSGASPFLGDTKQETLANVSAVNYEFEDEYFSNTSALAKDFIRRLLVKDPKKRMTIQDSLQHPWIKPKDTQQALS
T19 sequence (Q9P289 1-300): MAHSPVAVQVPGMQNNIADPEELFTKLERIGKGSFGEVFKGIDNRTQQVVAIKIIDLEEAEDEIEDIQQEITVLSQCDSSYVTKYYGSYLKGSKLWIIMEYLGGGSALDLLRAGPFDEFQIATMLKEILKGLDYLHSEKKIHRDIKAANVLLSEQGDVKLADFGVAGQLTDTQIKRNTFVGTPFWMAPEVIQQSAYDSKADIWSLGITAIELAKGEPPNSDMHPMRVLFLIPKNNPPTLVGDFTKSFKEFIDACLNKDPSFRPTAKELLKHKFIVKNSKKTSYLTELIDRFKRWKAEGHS
T11 sequence (P49759 148-484): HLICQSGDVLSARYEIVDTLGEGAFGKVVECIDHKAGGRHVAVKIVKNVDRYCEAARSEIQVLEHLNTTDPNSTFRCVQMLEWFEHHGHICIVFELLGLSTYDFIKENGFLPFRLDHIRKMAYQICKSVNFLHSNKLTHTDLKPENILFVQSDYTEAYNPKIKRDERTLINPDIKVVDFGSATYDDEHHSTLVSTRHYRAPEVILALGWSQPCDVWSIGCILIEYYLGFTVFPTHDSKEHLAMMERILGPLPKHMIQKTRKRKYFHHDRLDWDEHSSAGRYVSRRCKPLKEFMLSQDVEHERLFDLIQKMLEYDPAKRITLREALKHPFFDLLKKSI
T13 sequence (P34947 186-514): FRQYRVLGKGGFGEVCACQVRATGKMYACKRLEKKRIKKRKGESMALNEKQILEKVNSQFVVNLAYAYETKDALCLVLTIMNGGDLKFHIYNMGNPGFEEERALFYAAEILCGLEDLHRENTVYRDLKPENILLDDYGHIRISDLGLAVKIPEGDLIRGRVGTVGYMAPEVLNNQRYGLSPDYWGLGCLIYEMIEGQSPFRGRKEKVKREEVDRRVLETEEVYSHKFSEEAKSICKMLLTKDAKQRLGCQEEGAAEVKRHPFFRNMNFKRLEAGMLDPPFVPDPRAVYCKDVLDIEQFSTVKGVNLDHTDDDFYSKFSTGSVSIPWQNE

Structure (SMILES)	ΔTm at 10 µM (STK4 (STK4A))	ΔTm at 10 µM (MAPK1A)	ΔTm at 10 µM (CASKA)	ΔTm at 10 µM (FGFR2A)	ΔTm at 10 µM (SRPK1A)	ΔTm at 10 µM (PKMYT1A)	ΔTm at 10 µM (DYRK1AA)	ΔTm at 10 µM (PCTK1A)	ΔTm at 10 µM (CAMKK2B)	ΔTm at 10 µM (MST3A)	ΔTm at 10 µM (CLK1A)	ΔTm at 10 µM (CDK2A)	ΔTm at 10 µM (GPRK5A)	ΔTm at 10 µM (DAPK1 (DAPK1A))	ΔTm at 10 µM (OSR1A)	IC50 (SLK [1])	EC50 (SLK [2])	ΔTm at 10 µM (DAPK3 (DAPK3A))	ΔTm at 10 µM (NEK1A)	ΔTm RPS6KA1A (RPS6KA1A)	other results
Cc1ccc(F)cc1CNC(=O)Nc1ccc2cc1OCCOCCNc1ccn3ncc-2c3n1 [compound 26]	3.1 °C	0.8 °C	1.2 °C	3.5 °C	0 °C	0.3 °C	0.8 °C	1 °C	0.9 °C	-2 °C	2.1 °C	2.3 °C	0.1 °C	0.2 °C	1.2 °C	9.8 ± 2.41 µM	> 50 µM	1.2 °C	-0.4 °C	0,3 °C	ΔTm at 10 µM (MST4A): 0.8 °C; IC50 (STK10): 3.53 ± 0.57 µM; ΔTm at 10 µM (CDKL1A): 0.5 °C; ΔTm at 10 µM (BRAFA): -0.6 °C
COc1cccc(CNC(=O)Nc2ccc3cc2OCCOCCNc2ccn4ncc-3c4n2)c1 [compound 30]	3 °C	0.6 °C	0.9 °C	3.1 °C	0.1 °C	0 °C	-0.4 °C	1.3 °C	2 °C	-5.1 °C	2.5 °C	2.5 °C	0.5 °C	0.1 °C	1.2 °C	> 20 µM	> 50 µM	1.2 °C	-0.2 °C	0,6 °C	ΔTm at 10 µM (MST4A): 0.3 °C; IC50 (STK10): 6.29 ± 1.49 µM; ΔTm at 10 µM (CDKL1A): 0.3 °C; ΔTm at 10 µM (BRAFA): -0.2 °C
COc1ccc(CNC(=O)Nc2ccc3cc2OCCOCCNc2ccn4ncc-3c4n2)cc1F [compound 32]	4.4 °C	0.7 °C	1.7 °C	2.8 °C	0 °C	0.4 °C	0.6 °C	2 °C	1.8 °C	-6.4 °C	2.7 °C	3.4 °C	0.7 °C	0.4 °C	1.7 °C	11 ± 2.68 µM	> 50 µM	1.2 °C	-0.4 °C	0,8 °C	ΔTm at 10 µM (MST4A): 1.2 °C; IC50 (STK10): 3.33 ± 0.66 µM; ΔTm at 10 µM (CDKL1A): 0.5 °C; ΔTm at 10 µM (BRAFA): -0.2 °C

The next lines start with results.

ΔTm at 10 µM (STK4 (STK4A))	ΔTm at 10 µM (MAPK1A)	ΔTm at 10 µM (CASKA)	ΔTm at 10 µM (FGFR2A)	ΔTm at 10 µM (SRPK1A)	ΔTm at 10 µM (PKMYT1A)	ΔTm at 10 µM (DYRK1AA)	ΔTm at 10 µM (PCTK1A)	ΔTm at 10 µM (CAMKK2B)	ΔTm at 10 µM (MST3A)	ΔTm at 10 µM (CLK1A)	ΔTm at 10 µM (CDK2A)	ΔTm at 10 µM (GPRK5A)	ΔTm at 10 µM (DAPK1 (DAPK1A))	ΔTm at 10 µM (OSR1A)	IC50 (SLK [1])	EC50 (SLK [2])	ΔTm at 10 µM (DAPK3 (DAPK3A))	ΔTm at 10 µM (NEK1A)	Structure (SMILES)	ΔTm RPS6KA1A (RPS6KA1A)	other results
3.8 °C	0.9 °C	1.6 °C	2.7 °C	-0.1 °C	0.7 °C	1 °C	1.1 °C	1.5 °C	-3.4 °C	2.3 °C	1.9 °C	0.2 °C	0.1 °C	2.1 °C	2.74 ± 0.89 µM	> 50 µM	1.2 °C	-0.4 °C	O=C(NCc1ccccc1C(F)(F)F)Nc1ccc2cc1OCCOCCNc1ccn3ncc-2c3n1 [compound 27]	0,2 °C	ΔTm at 10 µM (MST4A): 1.9 °C; IC50 (STK10): 2.36 ± 0.6 µM; ΔTm at 10 µM (CDKL1A): 0.4 °C; ΔTm at 10 µM (BRAFA): -0.4 °C
2.6 °C	0.7 °C	1.1 °C	2.9 °C	0.2 °C	-0.1 °C	-0.5 °C	1 °C	1.5 °C	-7.7 °C	2.8 °C	1.7 °C	0.4 °C	-0.1 °C	0.9 °C	17.1 ± 2.86 µM	> 50 µM	0.5 °C	-0.3 °C	COc1ccccc1CNC(=O)Nc1ccc2cc1OCCOCCNc1ccn3ncc-2c3n1 [compound 29]	0,5 °C	ΔTm at 10 µM (MST4A): 0.2 °C; IC50 (STK10): 5.2 ± 0.81 µM; ΔTm at 10 µM (CDKL1A): 0.2 °C; ΔTm at 10 µM (BRAFA): -0.4 °C
